Measurements from ChEMBL document CHEMBL3822373, “An evolved oxazolidinone with selective potency against Mycobacterium tuberculosis and gram positive bacteria” (2016).
≈ marks a conversion by molar mass, not a printed value. Calls of active or inactive are those of the source. No cut-off for these calls is given here.

Assays:
Acinetobacter baumannii [1] = test: Antibacterial activity against Acinetobacter baumannii 6M-1b measured after 18 hrs by broth microdilution assay; format: functional
Acinetobacter baumannii [2] = test: Antibacterial activity against Acinetobacter baumannii ATCC 19606 measured after 18 hrs by broth microdilution assay; format: functional; settings: ATCC 19606, 18 h
Acinetobacter baumannii [3] = test: Antibacterial activity against Acinetobacter baumannii ACBA measured after 18 hrs by broth microdilution assay; format: functional
Enterobacter cloacae = test: Antibacterial activity against Enterobacter cloacae ATCC 13047 measured after 18 hrs by broth microdilution assay; format: functional; settings: ATCC 13047, 18 h
Klebsiella pneumoniae = test: Antibacterial activity against Klebsiella pneumoniae ATCC 35657 measured after 18 hrs by broth microdilution assay; format: functional; settings: ATCC 35657, 18 h
Pseudomonas aeruginosa = test: Antibacterial activity against Pseudomonas aeruginosa PA14 measured after 18 hrs by broth microdilution assay; format: functional; settings: PA14, 18 h
Staphylococcus aureus [4] = test: Antibacterial activity against […] Staphylococcus aureus ATCC 29213 measured after 18 hrs by broth microdilution assay; format: functional; settings: ATCC 29213, 18 h
Enterococcus faecalis [5] = test: Antibacterial activity against Enterococcus faecalis ATCC 19433 measured after 18 hrs by broth microdilution assay; format: functional; settings: ATCC 19433, 18 h
[6] = test system: Mycobacterium tuberculosis; test: Antibacterial activity against […] Mycobacterium tuberculosis H37Rv measured after 14 days by broth microdilution assay; format: functional; settings: 336 h
[7] = test system: Mycobacterium tuberculosis; test: Antibacterial activity against Mycobacterium tuberculosis 115R measured after 14 days by broth microdilution assay; format: functional; settings: 336 h
[8] = test system: Mycobacterium tuberculosis; test: Antibacterial activity against Mycobacterium tuberculosis 124R measured after 14 days by broth microdilution assay; format: functional; settings: 336 h
[9] = test system: Mycobacteroides abscessus; test: Antibacterial activity against Mycobacterium abscessus ATCC 19977 measured after 3 days by broth microdilution assay; format: functional; settings: ATCC 19977, 72 h
Mycobacterium avium = test: Antibacterial activity against Mycobacterium avium 104 measured after 7 days by broth microdilution assay; format: functional; settings: Mycobacterium avium, 104, 168 h
[10] = test system: Mycobacterium tuberculosis; test: Bactericidal activity against Mycobacterium tuberculosis H37Rv measured after 21 days by broth microdilution assay; format: functional; settings: 504 h, read-out: MBC99.9
Enterococcus faecalis [11] = test: Bactericidal activity against Enterococcus faecalis ATCC 19433 up to 8 times MIC90 measured after 2 days by broth microdilution assay; format: functional
Staphylococcus aureus [12] = test: Bactericidal activity against Staphylococcus aureus ATCC 29213 up to 8 times MIC90 measured after 2 days by broth microdilution assay; format: functional, organism-based
Enterococcus faecalis [13] = test: Bacteriostatic activity against Enterococcus faecalis ATCC 19433 assessed as prevention of spontaneous resistant mutant selection up to 60 times MIC90 measured after 5 weeks; format: functional
Staphylococcus aureus [14] = test: Bacteriostatic activity against […] Staphylococcus aureus ATCC 29213 assessed as prevention of spontaneous resistant mutant selection up to 60 times MIC90 measured after 5 weeks; format: functional, organism-based
Enterococcus faecalis [15] = test: Potentiation of biapenem-induced antibacterial activity against Enterococcus faecalis ATCC 19433 at <0.5 times MIC90 by checkboard titration assay; format: functional
Enterococcus faecalis [16] = test: Potentiation of faropenem-induced antibacterial activity against Enterococcus faecalis ATCC 19433 at <0.5 times MIC90 by checkboard titration assay; format: functional
Enterococcus faecalis [17] = test: Potentiation of tabipenem-induced antibacterial activity against Enterococcus faecalis ATCC 19433 at <0.5 times MIC90 by checkboard titration assay; format: functional
Staphylococcus aureus [18] = test: Potentiation of biapenem-induced antibacterial activity against Staphylococcus aureus ATCC 29213 at <0.5 times MIC90 by checkboard titration assay; format: functional, organism-based
Staphylococcus aureus [19] = test: Potentiation of faropenem-induced antibacterial activity against Staphylococcus aureus ATCC 29213 at <0.5 times MIC90 by checkboard titration assay; format: functional, organism-based
Staphylococcus aureus [20] = test: Potentiation of tabipenem-induced antibacterial activity against Staphylococcus aureus ATCC 29213 at <0.5 times MIC90 by checkboard titration assay; format: functional, organism-based
[21] = test system: Mycobacterium tuberculosis; test: Potentiation of isoniazid-induced antibacterial activity against Mycobacterium tuberculosis H37Rv by checkboard titration assay; format: functional, organism-based
[22] = test system: Mycobacterium tuberculosis; test: Potentiation of rifampicin-induced antibacterial activity against Mycobacterium tuberculosis H37Rv by checkboard titration assay; format: functional, organism-based
[23] = test system: Mycobacterium tuberculosis; test: Antibacterial activity against Mycobacterium tuberculosis; format: functional

| SMILES | MIC90 (Acinetobacter baumannii [1]) [µg/mL] | MIC90 (Acinetobacter baumannii [2]) [µg/mL] | MIC90 (Acinetobacter baumannii [3]) [µg/mL] | MIC90 (Enterobacter cloacae) [µg/mL] | MIC90 (Klebsiella pneumoniae) [µg/mL] | MIC90 (Pseudomonas aeruginosa) [µg/mL] | MIC90 (Staphylococcus aureus [4]) [µg/mL] | MIC90 (Enterococcus faecalis [5]) [µg/mL] | MIC90 [6] [µg/mL] | MIC90 [7] [µg/mL] | MIC90 [8] [µg/mL] | MIC90 [23] [µg/mL] | other results |
| --- | --- | --- | --- | --- | --- | --- | --- | --- | --- | --- | --- | --- | --- |
| CC(=O)NC[C@H]1CN(c2ccc3c(c2)Oc2ccccc2O3)C(=O)O1 | 0.25 (≈ 0.735 µM) | 32 (≈ 94 µM) | > 64 | > 64 | > 64 | > 64 | 0.5 (≈ 1.47 µM) | 0.25 (≈ 0.735 µM) | 0.5 (≈ 1.47 µM) | 0.5 (≈ 1.47 µM) | 0.5 (≈ 1.47 µM) | – | MIC90 [9]: > 64 µg/mL; MIC90 (Mycobacterium avium): > 64 µg/mL; MBC [10]: 2 µg/mL (≈ 5.88 µM); Activity (Enterococcus faecalis [11]): inactive; Activity (Staphylococcus aureus [12]): inactive; Activity (Enterococcus faecalis [13]): Active; Activity (Staphylococcus aureus [14]): Active; Activity (Enterococcus faecalis [15]): inactive; Activity (Enterococcus faecalis [16]): inactive; Activity (Enterococcus faecalis [17]): inactive; Activity (Staphylococcus aureus [18]): inactive; Activity (Staphylococcus aureus [19]): inactive; Activity (Staphylococcus aureus [20]): inactive; Activity [21]: inactive; Activity [22]: inactive |
| C[C@@H](O)[C@H]1C(=O)N2C(C(=O)[O-])=C(SC3Cn4cnc[n+]4C3)[C@H](C)[C@H]12 (stereo partly specified) [BIAPENEM] | – | – | – | – | – | – | 0.007 (≈ 0.02 µM) | 0.25 (≈ 0.713 µM) | – | – | – | 2.5 (≈ 7.13 µM) | – |
| C[C@@H](O)[C@H]1C(=O)N2C(C(=O)O)=C([C@H]3CCCO3)S[C@H]12 [FAROPENEM] | – | – | – | – | – | – | 0.015 (≈ 0.0526 µM) | 0.25 (≈ 0.876 µM) | – | – | – | 2.5 (≈ 8.76 µM) | – |
| CC(=O)NC[C@H]1CN(c2ccc(N3CCOCC3)c(F)c2)C(=O)O1 [LINEZOLID] | 0.25 (≈ 0.741 µM) | > 64 | > 64 | > 64 | 16 (≈ 47.4 µM) | > 64 | 1 (≈ 2.96 µM) | 1 (≈ 2.96 µM) | 0.2 (≈ 0.593 µM) | 0.25 (≈ 0.741 µM) | 0.25 (≈ 0.741 µM) | – | – |
| C[C@@H](O)[C@H]1C(=O)N2C(C(=O)O)=C(S[C@@H]3CN[C@H](C(=O)N(C)C)C3)[C@H](C)[C@H]12 [MEROPENEM] | 1 (≈ 2.61 µM) | > 64 | > 64 | 0.13 (≈ 0.339 µM) | < 0.06 | 0.25 (≈ 0.652 µM) | 0.06 (≈ 0.156 µM) | 4 (≈ 10.4 µM) | 4 (≈ 10.4 µM) | 8 (≈ 20.9 µM) | 8 (≈ 20.9 µM) | – | MIC90 [9]: > 64 µg/mL; MIC90 (Mycobacterium avium): > 64 µg/mL |
| CO[C@H]1/C=C/O[C@@]2(C)Oc3c(C)c(O)c4c(O)c(c(/C=N/N5CCN(C)CC5)c(O)c4c3C2=O)NC(=O)/C(C)=C\C=C\[C@H](C)[C@H](O)[C@@H](C)[C@@H](O)[C@@H](C)[C@H](OC(C)=O)[C@@H]1C [RIFAMPIN] | – | – | – | – | – | – | – | – | – | 4 (≈ 4.86 µM) | 128 (≈ 156 µM) | – | – |
| C[C@@H](O)[C@H]1C(=O)N2C(C(=O)O)=C(SC3CN(C4=NCCS4)C3)[C@H](C)[C@H]12 [TEBIPENEM] | – | – | – | – | – | – | 0.03 (≈ 0.0782 µM) | 0.25 (≈ 0.652 µM) | – | – | – | 1.25 (≈ 3.26 µM) | – |
